In PubChem BioAssay AID743154 (The Scripps Research Institute Molecular Screening Center, 2013):
pIC50: −log10 of the molar value. Calls of active or inactive are those of the source. How the calls were made is not given here.

Target: methionyl-tRNA synthetase (Trypanosoma brucei brucei)
Assay: T. brucei MetRS inhibitors, orthogonal readout, late-stage follow-up, orthogonal assay for T. brucei MetRS inhibitor project, biochemical, fluorescence polarization, dose response, round 1 (AID 743154)

Structure (SMILES) | IC50 | pIC50
Cc1ccc(CNC(=O)CSc2nnc3c(n2)[nH]c2ccc(C)cc23)cc1 | inactive | 
CCN(C(=O)Cn1cc(C(=O)C(=O)N2CCOCC2)c2ccccc21)c1ccccc1 | > 119 µM (inactive) | 
CCc1ccc2c(c1)c1nnc(SCC(=O)Nc3ccc4c(c3)OCO4)nc1n2C | > 119 µM (inactive) | 
O=C(Cn1cc(C(=O)C2CC2)c2ccccc21)Nc1cccc(C(F)(F)F)c1 | > 39.5 µM (inactive) | 
O=C(C(=O)N1CCOCC1)c1cn(CC(=O)N2CCCc3ccccc32)c2ccccc12 | > 13.2 µM (inactive) | 
O=C(Cn1cc(C(=O)C(=O)N2CCCC2)c2ccccc21)Nc1ccccc1 | > 119 µM (inactive) | 
Cc1ccc(C(=O)NCCc2nc3ccccc3[nH]2)cc1[N+](=O)[O-] |  | 5.45
O=C(NCCc1nc2ccccc2[nH]1)c1ccc(Cl)cc1 |  | 5.27
Cc1cc2cc(C(=O)N3CCCC(c4nc5ccccc5[nH]4)C3)ccc2o1 (stereo unspecified) | > 39.5 µM (inactive) | 
COc1ccccc1NC(=O)CSc1nnc2c(n1)[nH]c1ccc(C)cc12 | inactive | 
CCN(CC)C(=O)C(=O)c1cn(CC(=O)Nc2cccc(C(F)(F)F)c2)c2ccccc12 |  | 6.78
CCN(CC)C(=O)C(=O)c1cn(CC(=O)N(CC)c2ccccc2)c2ccccc12 | > 39.5 µM (inactive) | 
CC(=O)c1cn(CC(=O)Nc2cccc(C(F)(F)F)c2)c2ccccc12 | > 39.5 µM (inactive) | 
Cc1ccc(C(=O)NCCc2nc3ccccc3[nH]2)cc1C | > 13.2 µM (inactive) | 
O=C(Cn1cc(C(=O)C(=O)N2CCOCC2)c2ccccc21)NCc1ccccc1 | > 119 µM (inactive) | 
CCN(CC)C(=O)C(=O)c1cn(CC(=O)N2CCCc3ccccc32)c2ccccc12 | > 119 µM (inactive) | 
O=C(NCCc1nc2ccccc2[nH]1)c1ccc(Cl)cc1Cl |  | 5.87
O=C(Cn1cc(C(=O)C(=O)N2CCOCC2)c2ccccc21)NCC1CCCO1 (stereo unspecified) | > 119 µM (inactive) | 
Cc1cccc2[nH]c(C3CCCN(C(=O)c4cccc5cccnc45)C3)nc12 (stereo unspecified) | > 39.5 µM (inactive) | 
COc1ccccc1NC(=O)Cn1cc(C(=O)C(=O)N2CCOCC2)c2ccccc21 | > 119 µM (inactive) | 
O=C(NCCc1nc2ccccc2[nH]1)c1ccc(Cl)c(Cl)c1 |  | 6.05
Cc1ccc2[nH]c3nc(SCC(=O)Nc4ccc(C(F)(F)F)cc4)nnc3c2c1 | > 119 µM (inactive) | 
CC1Cc2ccccc2N1C(=O)Cn1cc(C(=O)C(=O)N2CCOCC2)c2ccccc21 (stereo unspecified) | > 119 µM (inactive) | 
CCC(=O)c1cn(CC(=O)Nc2cccc(C(F)(F)F)c2)c2ccccc12 | > 39.5 µM (inactive) | 
CCN(CC)C(=O)C(=O)c1cn(CC(=O)Nc2ccccc2OC)c2ccccc12 | > 119 µM (inactive) | 

More lines, now with the values ahead:

IC50 | pIC50 | Structure (SMILES)
> 39.5 µM (inactive) |  | CCCCn1c(CCNC(=O)c2ccc(F)cc2)nc2ccccc21
 | 6.17 | COc1ccc(CCN(C(=S)Nc2ccccc2)C2CC(=O)N(c3ccc(Cl)cc3)C2=O)cc1 (stereo unspecified)
> 119 µM (inactive) |  | Cc1cccc2[nH]c(CCN(C)C(=O)c3cccc(C4CCNC4)c3)nc12 (stereo unspecified)
> 39.5 µM (inactive) |  | COCCc1nc2ccc(C(=O)NCCc3nc4ccc(OC)cc4[nH]3)cc2o1
> 119 µM (inactive) |  | COc1ccc(NC(=O)CSc2nnc3c4cc(C)ccc4n(C)c3n2)cc1
> 119 µM (inactive) |  | COc1ccc(NC(=O)C2CC(=O)n3c(nc4ccccc43)N2)cc1 (stereo unspecified)
 | 5.75 | O=C(Nc1ccc(F)c(Cl)c1)C1CC(=O)n2c(nc3ccccc32)N1 (stereo unspecified)
inactive |  | O=C(CSC1CC(=O)N(c2cccc(Cl)c2)C1=O)Nc1ccc(Br)cc1 (stereo unspecified)
> 39.5 µM (inactive) |  | CC(=O)N(CCc1ccccc1)C1CC(=O)N(c2ccc(Br)cc2)C1=O (stereo unspecified)
 | 6.18 | O=C(CSc1nnc2c(n1)[nH]c1ccc(Br)cc12)NCc1ccccc1
> 119 µM (inactive) |  | COc1ccc(CCN(C(=O)c2cccc(F)c2)C2CC(=O)N(c3ccc(Br)cc3)C2=O)cc1 (stereo unspecified)
> 119 µM (inactive) |  | O=C1CC(NCCc2ccccc2)C(=O)N1c1ccc(Br)cc1 (stereo unspecified)
> 13.2 µM (inactive) |  | COc1cccc(NC(=O)C2CC(=O)n3c(nc4ccccc43)N2)c1 (stereo unspecified)
> 39.5 µM (inactive) |  | CCc1ccc2[nH]c3nc(SCC(=O)NCc4cccc(OC)c4)nnc3c2c1
> 39.5 µM (inactive) |  | CC(=O)N(CCc1ccccc1)C1CC(=O)N(c2ccc(Cl)cc2)C1=O (stereo unspecified)
> 119 µM (inactive) |  | CC(C)c1nc2ccc(C(=O)N(C)CCc3nc4ccc(F)cc4[nH]3)cc2o1
> 39.5 µM (inactive) |  | Cn1c(CCNC(=O)c2ccc(Cl)cc2)nc2ccccc21
> 119 µM (inactive) |  | O=C(NCCc1nc2ccccc2[nH]1)c1c(F)cccc1F
> 39.5 µM (inactive) |  | Cc1cccc(NC(=O)C2CC(=O)n3c(nc4ccccc43)N2)c1 (stereo unspecified)
 | 5.53 | O=C(Cn1cc(C(=O)c2ccco2)c2ccccc21)Nc1cccc(C(F)(F)F)c1
inactive |  | O=C(Cn1cc(C(=O)c2ccccc2)c2ccccc21)Nc1cccc(C(F)(F)F)c1
> 119 µM (inactive) |  | CCN(CCc1nc2ccc(C)cc2[nH]1)C(=O)c1ccc2ncccc2c1
> 39.5 µM (inactive) |  | O=C(Cn1cc(C(=O)COc2ccccc2)c2ccccc21)Nc1cccc(C(F)(F)F)c1
 | 5.46 | CCN(CC)C(=O)C(=O)c1cn(CC(=O)Nc2cccc(OC)c2)c2ccccc12
 | 6.49 | CNC(=S)N(CCc1ccccc1)C1CC(=O)N(c2ccc(Br)cc2)C1=O (stereo unspecified)
> 39.5 µM (inactive) |  | Cc1cccc(C(=O)NCCc2nc3ccccc3n2CCOc2ccccc2)c1
